Measured values published in paper PMC11347070 (Current Research in Toxicology, 2024).

How the values were obtained:
[1] = ref FDA, KEPPRA® (levetiracetam), n.d.; cited from earlier work
[2] = test system: zebrafish embryos and larvae; settings: exposed to 500 µM ECA; 120 hpf
[3] = test system: zebrafish embryos and larvae; assay: Zebrafish embryo developmental toxicity assay; settings: for BA heart / Coagulation/dead / Curved fin left / Curved fin right / Curved tail / Edema head / Edema pericard / Edema yolk / No hatching / Tissue deviation tail / Tot. malformed (excl. dead) / Tot. malformed (incl. dead) / Deviation eye / Elbow tail: 120 hpf

## CCC(C(=O)O)N1CCCC1=O (stereo not drawn) [ECA, etiracetam carboxylic acid]
[1]
  human metabolite of LTC, share of the administered dose: 24 % of the administered dose
[2]
  concentration of ECA in larvae: no concentrations above the LOD could be detected
  uptake of ECA: no uptake of ECA could be observed
[3]; ECA 1 µM, replicate 1
  BA heart: 0/20
  Coagulation/dead: 0/20
  Curved fin left: 0/20
  Curved fin right: 0/20
  Curved tail: 0/20
  Edema head: 0/20
  Edema pericard: 0/20
  Edema yolk: 0/20
  No hatching: 0/20
  Tissue deviation tail: 0/20
  Tot. malformed (excl. dead): 0/20
  Tot. malformed (incl. dead): 0/20
[3]; ECA 1 µM, replicate 2
  BA heart: 0/19
  Coagulation/dead: 1/20
  Curved fin left: 0/19
  Curved fin right: 0/19
  Curved tail: 0/19
  Edema head: 0/19
  Edema pericard: 0/19
  Edema yolk: 0/19
  No hatching: 0/19
  Tissue deviation tail: 0/19
  Tot. malformed (excl. dead): 0/19
  Tot. malformed (incl. dead): 1/20
[3]; ECA 10 µM, replicate 1
  BA heart: 0/18
  Coagulation/dead: 2/20
  Curved fin left: 0/18
  Curved fin right: 0/18
  Curved tail: 2/18
  Edema head: 0/18
  Edema pericard: 0/18
  Edema yolk: 0/18
  No hatching: 1/18
  Tissue deviation tail: 0/18
  Tot. malformed (excl. dead): 2/18
  Tot. malformed (incl. dead): 4/20
[3]; ECA 10 µM, replicate 2
  BA heart: 0/20
  Coagulation/dead: 0/20
  Curved fin left: 0/20
  Curved fin right: 0/20
  Curved tail: 1/20
  Edema head: 0/20
  Edema pericard: 0/20
  Edema yolk: 0/20
  No hatching: 0/20
  Tissue deviation tail: 0/20
  Tot. malformed (excl. dead): 1/20
  Tot. malformed (incl. dead): 1/20
[3]; ECA 100 µM, replicate 1
  BA heart: 0/18
  Coagulation/dead: 2/20
  Curved fin left: 0/18
  Curved fin right: 0/18
  Curved tail: 0/18
  Edema head: 0/18
  Edema pericard: 1/18
  Edema yolk: 0/18
  No hatching: 0/18
  Tissue deviation tail: 1/18
  Tot. malformed (excl. dead): 1/18
  Tot. malformed (incl. dead): 3/20
[3]; ECA 100 µM, replicate 2
  BA heart: 1/20
  Coagulation/dead: 0/20
  Curved fin left: 1/20
  Curved fin right: 1/20
  Curved tail: 1/20
  Edema head: 1/20
  Edema pericard: 2/20
  Edema yolk: 1/20
  No hatching: 0/20
  Tissue deviation tail: 1/20
  Tot. malformed (excl. dead): 2/20
  Tot. malformed (incl. dead): 2/20
[3]; ECA 250 µM, replicate 1
  Coagulation/dead: 0/20
  Curved tail: 0/20
  Deviation eye: 0/20
  Elbow tail: 1/20
  Tissue deviation tail: 1/20
  Tot. malformed (excl. dead): 2/20
  Tot. malformed (incl. dead): 2/20
[3]; ECA 250 µM, replicate 2
  Coagulation/dead: 0/20
  Curved tail: 0/20
  Deviation eye: 0/20
  Elbow tail: 0/20
  Tissue deviation tail: 0/20
  Tot. malformed (excl. dead): 0/20
  Tot. malformed (incl. dead): 0/20
[3]; ECA 500 µM, replicate 1
  Coagulation/dead: 0/20
  Curved tail: 1/20
  Deviation eye: 1/20
  Elbow tail: 0/20
  Tissue deviation tail: 1/20
  Tot. malformed (excl. dead): 2/20
  Tot. malformed (incl. dead): 2/20
[3]; ECA 500 µM, replicate 2
  Coagulation/dead: 0/20
  Curved tail: 0/20
  Deviation eye: 0/20
  Elbow tail: 0/20
  Tissue deviation tail: 1/20
  Tot. malformed (excl. dead): 1/20
  Tot. malformed (incl. dead): 1/20
[3]; all test concentrations, 24 to 120 hpf, Fisher Exact test
  differences between test groups and embryo medium control group: no statistically significant differences
[3]; concentrations up to 10,000 µM LTC and 500 µM ECA, likely due to limited uptake or lack of uptake
  teratogenicity in zebrafish larvae: non-teratogenic
